Test results as given in ChEMBL document CHEMBL5291721, “A preclinical secondary pharmacology resource illuminates target-adverse drug reaction associations of marketed drugs” (Nat Commun, 2023).
Values belong to the molecule of their own block, whether it stands above or below them.

What was measured:
[1] = target: T1, Alpha-1A adrenergic receptor (Homo sapiens, UniProt P35348); type: functional, cell-based
T1 sequence (P35348 whole entry): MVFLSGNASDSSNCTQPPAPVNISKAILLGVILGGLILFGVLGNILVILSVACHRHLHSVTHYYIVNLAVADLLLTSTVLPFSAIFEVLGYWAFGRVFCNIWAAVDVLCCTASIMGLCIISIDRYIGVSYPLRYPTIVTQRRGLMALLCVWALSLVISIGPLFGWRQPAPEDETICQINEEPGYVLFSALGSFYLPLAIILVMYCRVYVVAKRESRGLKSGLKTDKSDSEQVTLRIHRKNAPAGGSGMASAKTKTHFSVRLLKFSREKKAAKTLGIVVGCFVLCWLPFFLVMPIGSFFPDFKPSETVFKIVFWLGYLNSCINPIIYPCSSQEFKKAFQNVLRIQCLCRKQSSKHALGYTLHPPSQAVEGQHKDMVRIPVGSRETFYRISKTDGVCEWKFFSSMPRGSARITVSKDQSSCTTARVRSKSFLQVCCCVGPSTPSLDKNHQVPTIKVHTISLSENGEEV

[2] = target: Type-2 angiotensin II receptor (Homo sapiens, UniProt P50052); type: functional
Type-2 angiotensin II receptor, sequence (P50052 whole entry): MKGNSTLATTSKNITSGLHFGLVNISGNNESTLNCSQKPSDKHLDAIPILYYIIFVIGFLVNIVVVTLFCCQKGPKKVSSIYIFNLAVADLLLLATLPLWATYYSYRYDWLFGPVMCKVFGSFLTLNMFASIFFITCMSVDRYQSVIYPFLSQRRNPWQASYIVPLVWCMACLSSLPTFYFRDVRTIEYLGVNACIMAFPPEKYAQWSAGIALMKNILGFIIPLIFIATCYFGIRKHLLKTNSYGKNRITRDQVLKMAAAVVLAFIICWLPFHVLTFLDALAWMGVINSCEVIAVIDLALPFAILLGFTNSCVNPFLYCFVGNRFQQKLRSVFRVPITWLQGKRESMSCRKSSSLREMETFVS

[3] = target: T2, Type-1 angiotensin II receptor (Homo sapiens, UniProt P30556)
T2 sequence (P30556 whole entry): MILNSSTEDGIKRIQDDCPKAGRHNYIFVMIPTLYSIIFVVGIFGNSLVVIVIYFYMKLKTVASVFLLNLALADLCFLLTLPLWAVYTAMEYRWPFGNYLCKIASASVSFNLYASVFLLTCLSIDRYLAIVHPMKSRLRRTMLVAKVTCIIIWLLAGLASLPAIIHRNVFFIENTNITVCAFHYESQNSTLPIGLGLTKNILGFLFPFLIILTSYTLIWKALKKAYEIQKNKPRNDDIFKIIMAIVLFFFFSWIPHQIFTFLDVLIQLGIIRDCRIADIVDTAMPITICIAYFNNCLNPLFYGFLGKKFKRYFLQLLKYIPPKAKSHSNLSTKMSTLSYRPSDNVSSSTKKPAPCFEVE

[4] = target: T1, Alpha-1A adrenergic receptor
Androgen receptor = target: T3, Androgen receptor (Homo sapiens, UniProt P10275)
T3 sequence (P10275 whole entry): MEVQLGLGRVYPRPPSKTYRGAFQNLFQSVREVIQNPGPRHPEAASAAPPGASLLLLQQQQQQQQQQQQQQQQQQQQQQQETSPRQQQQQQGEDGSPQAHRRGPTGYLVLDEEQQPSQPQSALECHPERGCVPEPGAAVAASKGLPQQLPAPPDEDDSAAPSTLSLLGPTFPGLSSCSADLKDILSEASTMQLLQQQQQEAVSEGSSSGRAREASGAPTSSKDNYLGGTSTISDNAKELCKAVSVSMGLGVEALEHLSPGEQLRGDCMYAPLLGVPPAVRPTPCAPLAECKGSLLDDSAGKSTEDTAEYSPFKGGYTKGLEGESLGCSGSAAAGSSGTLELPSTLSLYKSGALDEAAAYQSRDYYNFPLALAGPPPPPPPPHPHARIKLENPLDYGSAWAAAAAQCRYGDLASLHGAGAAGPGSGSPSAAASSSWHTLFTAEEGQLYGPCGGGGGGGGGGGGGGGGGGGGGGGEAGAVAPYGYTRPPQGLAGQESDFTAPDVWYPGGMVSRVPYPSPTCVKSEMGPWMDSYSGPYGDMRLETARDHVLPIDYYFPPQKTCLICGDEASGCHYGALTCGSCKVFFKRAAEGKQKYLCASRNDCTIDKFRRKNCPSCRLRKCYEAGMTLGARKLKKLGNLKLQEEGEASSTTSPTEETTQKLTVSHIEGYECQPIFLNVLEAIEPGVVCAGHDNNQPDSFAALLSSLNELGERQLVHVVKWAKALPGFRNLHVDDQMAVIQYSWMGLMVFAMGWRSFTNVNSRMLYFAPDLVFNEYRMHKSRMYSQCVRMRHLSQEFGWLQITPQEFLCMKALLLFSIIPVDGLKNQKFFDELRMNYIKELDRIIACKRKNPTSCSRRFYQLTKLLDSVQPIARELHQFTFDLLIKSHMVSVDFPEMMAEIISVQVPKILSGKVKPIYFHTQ

D(1A) dopamine receptor = D(1A) dopamine receptor (Homo sapiens, UniProt P21728)
D(1A) dopamine receptor, sequence (P21728 whole entry): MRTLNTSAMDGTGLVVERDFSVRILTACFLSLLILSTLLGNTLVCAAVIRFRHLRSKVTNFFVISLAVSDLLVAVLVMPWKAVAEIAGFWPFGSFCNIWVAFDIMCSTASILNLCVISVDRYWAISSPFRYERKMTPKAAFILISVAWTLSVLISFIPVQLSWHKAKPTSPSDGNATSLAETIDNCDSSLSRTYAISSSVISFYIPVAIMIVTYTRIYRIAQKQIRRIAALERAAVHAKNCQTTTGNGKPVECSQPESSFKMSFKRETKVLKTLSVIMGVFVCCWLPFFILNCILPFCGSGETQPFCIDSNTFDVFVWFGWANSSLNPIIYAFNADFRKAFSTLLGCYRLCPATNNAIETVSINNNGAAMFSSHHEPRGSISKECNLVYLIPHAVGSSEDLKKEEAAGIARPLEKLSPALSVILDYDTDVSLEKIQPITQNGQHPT

[5] = target: T4, Oxysterols receptor LXR-beta (Homo sapiens, UniProt P55055); type: functional
T4 sequence (P55055 whole entry): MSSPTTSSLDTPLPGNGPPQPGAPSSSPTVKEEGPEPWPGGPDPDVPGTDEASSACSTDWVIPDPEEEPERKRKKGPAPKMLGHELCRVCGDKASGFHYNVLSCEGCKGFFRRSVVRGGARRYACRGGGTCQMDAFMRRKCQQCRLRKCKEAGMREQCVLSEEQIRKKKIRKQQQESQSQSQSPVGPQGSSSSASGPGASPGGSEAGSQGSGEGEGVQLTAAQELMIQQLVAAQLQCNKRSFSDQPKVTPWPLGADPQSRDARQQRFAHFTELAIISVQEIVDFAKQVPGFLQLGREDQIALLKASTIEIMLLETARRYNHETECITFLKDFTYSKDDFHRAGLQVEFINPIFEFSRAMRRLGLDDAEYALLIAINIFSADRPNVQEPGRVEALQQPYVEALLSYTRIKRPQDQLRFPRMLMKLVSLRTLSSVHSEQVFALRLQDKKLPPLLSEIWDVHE

[6] = target: T4, Oxysterols receptor LXR-beta; type: functional; remark: listed apart in the source
[7] = target: T5, Retinoic acid receptor alpha (Homo sapiens, UniProt P10276); type: functional, cell-based
T5 sequence (P10276 whole entry): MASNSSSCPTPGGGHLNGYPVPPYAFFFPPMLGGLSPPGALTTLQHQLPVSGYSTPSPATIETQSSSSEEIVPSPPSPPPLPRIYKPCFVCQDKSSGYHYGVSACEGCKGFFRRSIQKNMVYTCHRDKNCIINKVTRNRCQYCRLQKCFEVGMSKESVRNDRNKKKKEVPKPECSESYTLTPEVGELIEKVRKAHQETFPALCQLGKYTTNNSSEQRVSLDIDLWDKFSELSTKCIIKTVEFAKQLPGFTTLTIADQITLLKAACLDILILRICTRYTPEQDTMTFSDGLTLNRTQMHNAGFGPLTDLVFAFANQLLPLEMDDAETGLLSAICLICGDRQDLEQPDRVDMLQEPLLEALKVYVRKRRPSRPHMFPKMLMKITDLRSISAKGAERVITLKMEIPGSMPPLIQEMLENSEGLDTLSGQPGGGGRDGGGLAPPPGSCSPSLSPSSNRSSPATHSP
Note: assay procedure not described here.

Molecule: Nc1nc2ccc(OC(F)(F)F)cc2s1 [RILUZOLE]
AC50 [1]: > 30 µM

Molecule: Cc1c(O)c(=O)ccn1C [DEFERIPRONE]
AC50 [2]: > 100 µM
AC50 [3]: > 100 µM

Molecule: CCN1CCC[C@H]1CNC(=O)c1cc(S(N)(=O)=O)ccc1OC [LEVOSULPIRIDE]
AC50 (D(1A) dopamine receptor): 12 µM

Next, values leading:

AC50 [4]: > 30 µM
AC50 (Androgen receptor): > 30 µM
Molecule: BIVALIRUDIN

AC50 [5]: > 30 µM
AC50 [6]: > 30 µM
AC50 [7]: > 30 µM
Molecule: CC(C)c1c(C(=O)Nc2ccccc2)c(-c2ccccc2)c(-c2ccc(F)cc2)n1CC[C@@H](O)C[C@@H](O)CC(=O)O [ATORVASTATIN]
